# Target: T1, purified human Factor XIa (Homo sapiens, UniProt P03951)
# T1 construct: purchased Haematologic Technologies
# Assay: Factor XIa enzyme inhibition assay (chromogenic substrate S-2366), Ki
# Format: biochemical
# Details: substrate S-2366, pH 7.4
# In short: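 Purified human Factor XIa ([…] final) with chromogenic substrate S-2366 (0.0002-0.001 M) in 50 mM HEPES pH 7.4, 145 mM NaCl, 5 mM KCl, 0.1% PEG 8000. Velocities measured over 20-180 minutes with and without inhibitor; Ki derived assuming competitive inhibition, e.g. Ki=IC50/(1+S/Km).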
# T1 sequence (P03951 388-625 limits assumed): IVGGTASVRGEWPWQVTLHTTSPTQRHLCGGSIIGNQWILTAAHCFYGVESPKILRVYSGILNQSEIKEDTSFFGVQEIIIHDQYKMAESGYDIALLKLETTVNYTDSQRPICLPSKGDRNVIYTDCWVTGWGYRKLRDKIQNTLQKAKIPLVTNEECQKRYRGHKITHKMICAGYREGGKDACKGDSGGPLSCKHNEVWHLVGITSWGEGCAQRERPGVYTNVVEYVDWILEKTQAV
# T1 sequence (P03951 19-387 partner limits assumed): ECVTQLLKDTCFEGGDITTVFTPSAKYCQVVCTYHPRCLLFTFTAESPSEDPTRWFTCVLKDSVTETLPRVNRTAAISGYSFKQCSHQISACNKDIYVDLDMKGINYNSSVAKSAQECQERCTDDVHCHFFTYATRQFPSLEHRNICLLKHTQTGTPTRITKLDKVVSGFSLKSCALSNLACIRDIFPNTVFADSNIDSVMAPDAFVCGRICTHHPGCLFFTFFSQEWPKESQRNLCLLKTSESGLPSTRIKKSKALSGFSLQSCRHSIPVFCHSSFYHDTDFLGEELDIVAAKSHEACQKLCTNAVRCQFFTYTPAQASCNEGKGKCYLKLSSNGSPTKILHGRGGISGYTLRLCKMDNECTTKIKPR
row,Ki,SMILES
1,127 nM,"O=C(NC1CCC(O)CC1)[C@H](Cc1ccccc1)n1cnc(-c2cc(Cl)ccc2-n2cc(Cl)nn2)cc1=O (stereo partly drawn) [Example 103, (S)-2-(4-(5-chloro-2-(4-chloro-1H-1,2,3-triazol-1-yl)phenyl)-6-oxopyrimidin-1(6H)-yl)-N-(4-hydroxycyclohexyl)-3-phenylpropanamide]"
2,231 nM,"O=C(NC1CCCCC1)[C@H](Cc1ccccc1)n1cnc(-c2cc(Cl)ccc2-n2cc(Cl)nn2)cc1=O [Example 104, (S)-2-(4-(5-chloro-2-(4-chloro-1H-1,2,3-triazol-1-yl)phenyl)-6-oxopyrimidin-1(6H)-yl)-N-cyclohexyl-3-phenylpropanamide]"
3,2290 nM,"Cn1ccc(CNC(=O)[C@H](Cc2ccccc2)n2cnc(-c3cc(Cl)ccc3-n3cc(Cl)nn3)cc2=O)n1 [Example 105, (S)-2-(4-(5-chloro-2-(4-chloro-1H-1,2,3-triazol-1-yl)phenyl)-6-oxopyrimidin-1(6H)-yl)-N-((1-methyl-1H-pyrazol-3-yl)methyl)-3-phenylpropanamide]"
4,325 nM,"Cc1ccc(NC(=O)[C@H](Cc2ccccc2)n2cnc(-c3cc(Cl)ccc3-n3cc(Cl)nn3)cc2=O)nn1 [Example 106, (S)-2-(4-(5-chloro-2-(4-chloro-1H-1,2,3-triazol-1-yl)phenyl)-6-oxopyrimidin-1(6H)-yl)-N-(6-methylpyridazin-3-yl)-3-phenylpropanamide]"
5,4550 nM,"CC1=NN=C(NC(=O)[C@H](Cc2ccccc2)n2cnc(-c3cc(Cl)ccc3-n3cc(Cl)nn3)cc2=O)SC1 [Example 107, (S)-2-(4-(5-chloro-2-(4-chloro-1H-1,2,3-triazol-1-yl)phenyl)-6-oxopyrimidin-1(6H)-yl)-N-(5-methyl-6H-1,3,4-thiadiazin-2-yl)-3-phenylpropanamide]"
6,220 nM,"O=C(O)C[C@H]1CC[C@H](NC(=O)[C@H](Cc2ccccc2)n2cnc(-c3cc(Cl)ccc3-n3cc(Cl)nn3)cc2=O)CC1 [Example 108, 2-((1S,4r)-4-((S)-2-(4-(5-chloro-2-(4-chloro-1H-1,2,3-triazol-1-yl)phenyl)-6-oxopyrimidin-1(6H)-yl)-3-phenylpropanamido)cyclohexyl)acetic acid]"
7,150 nM,"O=C(Nc1ncnc2[nH]ncc12)[C@H](Cc1ccccc1)n1cnc(-c2cc(Cl)ccc2-n2cc(Cl)nn2)cc1=O [Example 109, (S)-2-(4-(5-chloro-2-(4-chloro-1H-1,2,3-triazol-1-yl)phenyl)-6-oxopyrimidin-1(6H)-yl)-3-phenyl-N-(1H-pyrazolo[3,4-d]pyrimidin-4-yl)propanamide]"
8,257 nM,"O=C(Nc1nnc(C2CCC2)[nH]1)[C@H](Cc1ccccc1)n1cnc(-c2cc(Cl)ccc2-n2cc(Cl)nn2)cc1=O [Example 110, (S)-2-(4-(5-chloro-2-(4-chloro-1H-1,2,3-triazol-1-yl)phenyl)-6-oxopyrimidin-1(6H)-yl)-N-(5-cyclobutyl-4H-1,2,4-triazol-3-yl)-3-phenylpropanamide]"
9,106 nM,"NC(=O)c1ccc(NC(=O)[C@H](Cc2ccccc2)n2cnc(-c3cc(Cl)ccc3-n3cc(Cl)nn3)cc2=O)nc1 [Example 111, (S)-6-(2-(4-(5-chloro-2-(4-chloro-1H-1,2,3-triazol-1-yl)phenyl)-6-oxopyrimidin-1(6H)-yl)-3-phenylpropanamido)nicotinamide]"
10,277 nM,"N=C(N)c1ccc(NC(=O)[C@H](Cc2ccccc2)n2cnc(-c3cc(Cl)ccc3-n3cc(Cl)nn3)cc2=O)cc1 [Example 112, (S)-N-(4-carbamimidoylphenyl)-2-(4-(5-chloro-2-(4-chloro-1H-1,2,3-triazol-1-yl)phenyl)-6-oxopyrimidin-1(6H)-yl)-3-phenylpropanamide]"
11,74 nM,"Cc1ccc2c(NC(=O)[C@H](Cc3ccccc3)n3cnc(-c4cc(Cl)ccc4-n4cc(Cl)nn4)cc3=O)noc2c1 [Example 113, (S)-2-(4-(5-chloro-2-(4-chloro-1H-1,2,3-triazol-1-yl)phenyl)-6-oxopyrimidin-1(6H)-yl)-N-(6-methylbenzo[d]isoxazol-3-yl)-3-phenylpropanamide]"
12,336 nM,"O=C(Nc1noc2cc(Br)ccc12)[C@H](Cc1ccccc1)n1cnc(-c2cc(Cl)ccc2-n2cc(Cl)nn2)cc1=O [Example 114, (S)-N-(6-bromobenzo[d]isoxazol-3-yl)-2-(4-(5-chloro-2-(4-chloro-1H-1,2,3-triazol-1-yl)phenyl)-6-oxopyrimidin-1(6H)-yl)-3-phenylpropanamide]"
13,305 nM,"O=C(Nc1noc2c(Cl)cccc12)[C@H](Cc1ccccc1)n1cnc(-c2cc(Cl)ccc2-n2cc(Cl)nn2)cc1=O [Example 115, (S)-2-(4-(5-chloro-2-(4-chloro-1H-1,2,3-triazol-1-yl)phenyl)-6-oxopyrimidin-1(6H)-yl)-N-(7-chlorobenzo[d]isoxazol-3-yl)-3-phenylpropanamide]"
14,463 nM,"Cc1nc2ccc(CNC(=O)[C@H](Cc3ccccc3)n3cnc(-c4cc(Cl)ccc4-n4cc(Cl)nn4)cc3=O)cc2[nH]1 [Example 116, (S)-2-(4-(5-chloro-2-(4-chloro-1H-1,2,3-triazol-1-yl)phenyl)-6-oxopyrimidin-1(6H)-yl)-N-((2-methyl-1H-benzo[d]imidazol-6-yl)methyl)-3-phenylpropanamide]"
15,102 nM,"O=C1NCc2ccc(NC(=O)[C@H](Cc3ccccc3)n3cnc(-c4cc(Cl)ccc4-n4cc(Cl)nn4)cc3=O)cc21 [Example 117, (S)-2-(4-(5-chloro-2-(4-chloro-1H-1,2,3-triazol-1-yl)phenyl)-6-oxopyrimidin-1(6H)-yl)-N-(3-oxoisoindolin-5-yl)-3-phenylpropanamide]"
16,33.3 nM,"NC(=O)c1ccc(NC(=O)[C@H](Cc2ccccc2)n2cnc(-c3cc(Cl)ccc3-n3cc(Cl)nn3)cc2=O)cc1 [Example 118, (S)-4-(2-(4-(5-chloro-2-(4-chloro-1H-1,2,3-triazol-1-yl)phenyl)-6-oxopyrimidin-1(6H)-yl)-3-phenylpropanamido)benzamide]"
17,408 nM,"O=C(Nc1cnn(-c2ccc(Cl)cc2)c1)[C@H](Cc1ccccc1)n1cnc(-c2cc(Cl)ccc2-n2cc(Cl)nn2)cc1=O [Example 119, (S)-2-(4-(5-chloro-2-(4-chloro-1H-1,2,3-triazol-1-yl)phenyl)-6-oxopyrimidin-1(6H)-yl)-N-(1-(4-chlorophenyl)-1H-pyrazol-4-yl)-3-phenylpropanamide]"
18,549 nM,"O=C(Nc1cnn(-c2ccccc2)c1)[C@H](Cc1ccccc1)n1cnc(-c2cc(Cl)ccc2-n2cc(Cl)nn2)cc1=O [Example 120, (S)-2-(4-(5-chloro-2-(4-chloro-1H-1,2,3-triazol-1-yl)phenyl)-6-oxopyrimidin-1(6H)-yl)-3-phenyl-N-(1-phenyl-1H-pyrazol-4-yl)propanamide]"
19,158 nM,"O=C(Nc1noc2ccccc12)[C@H](Cc1ccccc1)n1cnc(-c2cc(Cl)ccc2-n2cc(Cl)nn2)cc1=O [Example 121, (S)-N-(benzo[d]isoxazol-3-yl)-2-(4-(5-chloro-2-(4-chloro-1H-1,2,3-triazol-1-yl)phenyl)-6-oxopyrimidin-1(6H)-yl)-3-phenylpropanamide]"
20,632 nM,"O=C(Nc1n[nH]c2cccnc12)[C@H](Cc1ccccc1)n1cnc(-c2cc(Cl)ccc2-n2cc(Cl)nn2)cc1=O [Example 122, (S)-2-(4-(5-chloro-2-(4-chloro-1H-1,2,3-triazol-1-yl)phenyl)-6-oxopyrimidin-1(6H)-yl)-3-phenyl-N-(1H-pyrazolo[4,3-b]pyridin-3-yl)propanamide]"
21,7150 nM,"O=C(Nc1ccnc2ccc(C(F)(F)F)cc12)[C@H](Cc1ccccc1)n1cnc(-c2cc(Cl)ccc2-n2cc(Cl)nn2)cc1=O [Example 123, (S)-2-(4-(5-chloro-2-(4-chloro-1H-1,2,3-triazol-1-yl)phenyl)-6-oxopyrimidin-1(6H)-yl)-3-phenyl-N-(6-(trifluoromethyl)quinolin-4-yl)propanamide]"
22,7150 nM,"O=C(Nc1ccnc2ccc(Cl)cc12)[C@H](Cc1ccccc1)n1cnc(-c2cc(Cl)ccc2-n2cc(Cl)nn2)cc1=O [Example 124, (S)-2-(4-(5-chloro-2-(4-chloro-1H-1,2,3-triazol-1-yl)phenyl)-6-oxopyrimidin-1(6H)-yl)-N-(6-chloroquinolin-4-yl)-3-phenylpropanamide]"
23,66.9 nM,"O=C(Nc1n[nH]c2ccccc12)[C@H](Cc1ccccc1)n1cnc(-c2cc(Cl)ccc2-n2cc(Cl)nn2)cc1=O [Example 125, (S)-2-(4-(5-chloro-2-(4-chloro-1H-1,2,3-triazol-1-yl)phenyl)-6-oxopyrimidin-1(6H)-yl)-N-(1H-indazol-3-yl)-3-phenylpropanamide]"
24,213 nM,"O=C(Nc1ccnc2[nH]ncc12)[C@H](Cc1ccccc1)n1cnc(-c2cc(Cl)ccc2-n2cc(Cl)nn2)cc1=O [Example 126, (S)-2-(4-(5-chloro-2-(4-chloro-1H-1,2,3-triazol-1-yl)phenyl)-6-oxopyrimidin-1(6H)-yl)-3-phenyl-N-(1H-pyrazolo[3,4-b]pyridin-4-yl)propanamide]"
25,837 nM,"O=C(NC1CCc2ccccc21)[C@H](Cc1ccccc1)n1cnc(-c2cc(Cl)ccc2-n2cc(Cl)nn2)cc1=O (stereo partly drawn) [Example 127, (2S)-2-(4-(5-chloro-2-(4-chloro-1H-1,2,3-triazol-1-yl)phenyl)-6-oxopyrimidin-1(6H)-yl)-N-(2,3-dihydro-1H-inden-1-yl)-3-phenylpropanamide]"
26,826 nM,"O=C(NC1COc2ccccc21)[C@H](Cc1ccccc1)n1cnc(-c2cc(Cl)ccc2-n2cc(Cl)nn2)cc1=O (stereo partly drawn) [Example 128, (2S)-2-(4-(5-chloro-2-(4-chloro-1H-1,2,3-triazol-1-yl)phenyl)-6-oxopyrimidin-1(6H)-yl)-N-(2,3-dihydrobenzofuran-3-yl)-3-phenylpropanamide]"
27,77 nM,"O=C(O)c1ccc(NC(=O)C(Cc2ccccc2)N2CCC(c3c(F)ccc(Cl)c3F)=CC2=O)cc1 (stereo not drawn) [Example 129, 4-{2-[4-(3-Chloro-2,6-difluorophenyl)-6-oxo-1,2,3,6-tetrahydropyridin-1-yl]-3-phenylpropanamido}benzoic Acid]"

# Reference: US10336730B2, “Substituted glycine derived FXIA inhibitors” (BRISTOL-MYERS SQUIBB COMPANY, priority 2015, dated 2019)
